The assay has as its target T1, ROCKII (Homo sapiens, UniProt O75116).
T1 construct: gene ROCK2; ROCKII(5–554), constitutively active recombinant
Put plainly: […]-phosphoryl transfer kinase assay with LC20 peptide; steady-state kinetics. It is filed as biochemical.

Molecules are shown by their SMILES.

T1 sequence (O75116 5-554): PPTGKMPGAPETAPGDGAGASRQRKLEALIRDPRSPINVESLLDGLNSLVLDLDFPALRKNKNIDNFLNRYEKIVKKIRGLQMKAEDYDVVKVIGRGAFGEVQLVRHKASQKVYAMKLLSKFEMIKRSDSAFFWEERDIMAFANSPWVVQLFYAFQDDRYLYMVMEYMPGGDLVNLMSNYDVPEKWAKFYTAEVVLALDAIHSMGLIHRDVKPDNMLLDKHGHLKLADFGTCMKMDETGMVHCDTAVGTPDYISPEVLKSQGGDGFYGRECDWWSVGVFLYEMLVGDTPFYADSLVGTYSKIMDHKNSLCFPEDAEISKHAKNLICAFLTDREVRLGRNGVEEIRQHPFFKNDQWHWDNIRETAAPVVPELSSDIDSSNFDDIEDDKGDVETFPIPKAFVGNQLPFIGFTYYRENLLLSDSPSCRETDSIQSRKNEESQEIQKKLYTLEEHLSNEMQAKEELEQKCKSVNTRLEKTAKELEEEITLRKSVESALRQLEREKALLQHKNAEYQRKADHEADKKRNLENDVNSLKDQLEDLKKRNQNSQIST

On to `O=C1OC(c2ccc(Cl)c([N+](=O)[O-])c2)=N/C1=C\c1cccnc1` [DI, (4Z)-2-(4-chloro-3-nitrophenyl)-4-(pyridin-3-ylmethylidene)-1,3-oxazol-5-one], for which the Ki (commonly a dissociation constant, usually derived from enzyme kinetics or from competition with a known ligand) is 132 nM.
